Measured values as given in patent US8951580B2, “Methods for improving the safety of treating pediatric patients who are candidates for inhaled nitric oxide treatment” (priority 2009, dated 2015).

Legend:
[1] = system: pulmonary vasculature of children with pulmonary hypertension; assay: INOT22 study: acute pulmonary vasodilator testing during cardiac catheterization; conditions: iNO 80 ppm; for SVRI Change From Baseline, Mean / SVRI Change From Baseline, Median / SVRI Change From Baseline, Minimum / SVRI Change From Baseline, maximum / Ratio PVRI/SVRI Change from Baseline, Maximum / Ratio PVRI/SVRI Change from Baseline, Mean / Ratio PVRI/SVRI Change from Baseline, Median / Ratio PVRI/SVRI Change from Baseline, Minimum / Ratio PVRI/SVRI Percent Change from Baseline, Maximum / Ratio PVRI/SVRI Percent Change from Baseline, Mean / Ratio PVRI/SVRI Percent Change from Baseline, Median / Ratio PVRI/SVRI Percent Change from Baseline, Minimum / Ratio PVRI/SVRI Post Treatment, Maximum / Ratio PVRI/SVRI Post Treatment, Mean / Ratio PVRI/SVRI Post Treatment, Median / Ratio PVRI/SVRI Post Treatment, Minimum / SVRI Post-treatment, Mean / SVRI Post-treatment, Median / SVRI Post-treatment, Minimum / SVRI Post-treatment, maximum: ITT, each treatment 10 minutes; for SVRI Change From Baseline, Mean / SVRI Change From Baseline, Median / SVRI Change From Baseline, Minimum / SVRI Change From Baseline, maximum: baseline room air; for tolerability: INOT22 diagnostic study, children with pulmonary hypertension
Method: The INOT22 study, entitled “Comparison of supplemental oxygen and nitric oxide for inhalation plus oxygen in the evaluation of the reactivity of the pulmonary vasculature during acute pulmonary vasodilatory testing” was conducted both to assess the safety and effectiveness of INOmax® as a diagnostic agent in patients undergoing assessment of pulmonary hypertension (primary endpoint), and to confirm the hypothesis that iNO is selective for the pulmonary vasculature (secondary endpoint).
In particular, the INOT22 protocol studied consecutive children undergoing cardiac catheterization that were prospectively enrolled at 16 centers in the US and Europe. Inclusion criteria: 4 weeks to 18 years of age, pulmonary hypertension diagnosis, i.e. either idiopathic pulmonary hypertension (IPAH) or related to congenital heart disease (CHD) (repaired or unrepaired) or cardiomyopathy, with pulmonary vascular resistance index (PVRI)>3 u−m^2. Later amendments, as discussed herein, added an additional inclusionary criterion of a PCWP less than 20 mm Hg. Patients were studied under general anaesthesia, or with conscious sedation, according to the practice of the investigator. Exclusion criteria: focal infiltrates on chest X-ray, history of intrinsic lung disease, and/or currently taking PDE-5 inhibitors, prostacyclin analogues or sodium nitroprusside. The study involved supplemental O2 and NO for inhalation plus O2 in the evaluation of the reactivity of the pulmonary vasculature during acute pulmonary vasodilator testing. Consecutive children undergoing cardiac catheterization were prospectively enrolled at 16 centers in the US and Europe. […] A specific secondary endpoint was evaluated in study INOT22 to provide a more definitive evaluation.
The primary objective was to compare the response frequency with iNO and O2 vs. O2 alone; in addition, all subjects were studied with iNO alone. Patients were studied during five periods: Baseline 1, Treatment Period 1, Treatment Period 2, Baseline 2 and Treatment Period 3. All patients received all three treatments; treatment sequence was randomized by center in blocks of 4; in Period 1, patients received either NO alone or O2 alone, and the alternate treatment in Period 3. All patients received the iNO and O2 combination treatment in Period 2. Once the sequence was assigned, treatment was unblinded. Each treatment was given for 10 minutes prior to obtaining hemodynamic measurements, and the Baseline Period 2 was at least 10 minutes.

[2] = system: term and near-term neonates with pulmonary hypertension and hypoxic respiratory failure; conditions: Inhaled NO n=97; number of patients (%); cited from earlier work
[3] = system: neonates with hypoxic respiratory failure; conditions: n=114, number (%), cited from earlier work

Compound | SVRI Change From Baseline, Mean [1] | SVRI Change From Baseline, Median [1] | SVRI Change From Baseline, Minimum [1] | SVRI Change From Baseline, maximum [1] | Ratio PVRI/SVRI Change from Baseline, Maximum [1] | Ratio PVRI/SVRI Change from Baseline, Mean [1] | Ratio PVRI/SVRI Change from Baseline, Median [1] | Ratio PVRI/SVRI Change from Baseline, Minimum [1] | Ratio PVRI/SVRI Percent Change from Baseline, Maximum [1] | Ratio PVRI/SVRI Percent Change from Baseline, Mean [1] | Ratio PVRI/SVRI Percent Change from Baseline, Median [1] | Ratio PVRI/SVRI Percent Change from Baseline, Minimum [1] | Ratio PVRI/SVRI Post Treatment, Maximum [1] | Ratio PVRI/SVRI Post Treatment, Mean [1] | Ratio PVRI/SVRI Post Treatment, Median [1] | Ratio PVRI/SVRI Post Treatment, Minimum [1] | SVRI Post-treatment, Mean [1] | SVRI Post-treatment, Median [1] | SVRI Post-treatment, Minimum [1] | SVRI Post-treatment, maximum [1] | also measured
O=O [O2, oxygen] | 1.3 WU · m^2 | 1.0 WU · m^2 | −18.1 WU · m^2 | 17.7 WU · m^2 | 2.0 | −0.1 | −0.1 | −1.6 | 93.3% | −19.3% | −21.3% | −122.7% | 1.4 | 0.4 | 0.4 | 0.0 | 18.9 WU · m^2 | 17.1 WU · m^2 | 3.9 WU · m^2 | 43.6 WU · m^2 | –
nitric oxide [NO] | −0.2 WU · m^2 | 0.2 WU · m^2 | −12.5 WU · m^2 | 12.7 WU · m^2 | 1.6 | −0.1 | 0.0 | −4.4 | 294.1% | −6.2% | −13.8% | −256.1% | 2.2 | 0.5 | 0.3 | −1.2 | 17.8 WU · m^2 | 15.4 WU · m^2 | 3.3 WU · m^2 | 50.7 WU · m^2 | tolerability [1]: well-tolerated; tolerability ([1]; listed as iNO): well-tolerated in most patients; Adverse Reaction: Atelectasis [2]: 7 (6.5%); Adverse Reaction: Bilirubinemia [2]: 7 (6.5%); Adverse Reaction: Hypokalemia [2]: 9 (8.3%); Adverse Reaction: Hypotension [2]: 6 (5.6%); Adverse Reaction: Thrombocytopenia [2]: 16 (14.8%); Death or ECMO ([3]; 100% O2 with 20 ppm NO for up to 14 days, primary end point): 52 (46%); Death ([3]; 100% O2 with 20 ppm NO): 16 (14%); ECMO ([3]; 100% O2 with 20 ppm NO): 44 (39%)
